What is called EC50 is the concentration giving half of the maximal effect. By CC50 is commonly meant the concentration at which the toxic effect on the cells reaches its halfway point. By IC50 is commonly meant the concentration at which inhibition is half-maximal. The term Kd denotes a measure of binding affinity in units of concentration.

Experimental findings from patent publication US20210267981A1, “COMPOUNDS FOR THE TREATMENT OF HIV INFECTION AND OTHER DISEASES CAUSED BY RNA VIRUSES” (UNIVERSIDAD CATOLICA DE VALENCIA "SAN VICENTE MARTIR", priority 2018, published 2021) are described below.

Molecules are shown by their SMILES. Read-outs that look alike come from different tables or passages of the source.

Series [1] concerns HIV-1. The series is described as follows: Anti-HIV-1 activity, cell infection assay in MT-2 cells (pNL4.3-Ren supernatants). It counts as cell-based. The protocol: Plasmids, Virus, and Cells for Ex Vivo Assays.
Vectors pNL4.3-Luc and pNL4.3-Ren were generated by cloning luciferase and Renilla genes, respectively, in the nef site of HIV-1 proviral plasmid pNL4.3 (Adachi et al., J Virol 59(2) (1986) 284-91), as described previously in the state of the art (Garcia-Perez et al., J Med Virol 79(2) (2007) 127-37). MT-2 cells (Harada et al., Science 229(4713) (1985) 563-6) and 293T cells (American Type Culture Collection, Rockville, USA) were cultured as described previously (Prado et al., Biochem Pharmacol 107 (2016) 14-28).
(§1) Anti-HIV-1 Activity and Cell Toxicity.
(§2) The methodology used for performing and analyzing these experiments has been described previously (Prado et al., Biochem Pharmacol 107 (2016) 14-28; Gonzalez-Bulnes et al., Angewandte Chemie-International Edition 52(50) (2013) 13405-13409). Briefly, infectious supernatants were obtained from 293T cells transfected with the pNL4.3-Ren plasmid. MT-2 cells were infected with these supernatants in the presence of the compounds, and the anti-HIV activity was quantified 48 h after infection by determining luciferase activity in the cell lysates. Cell viability was evaluated in cells treated with the same compound concentrations using the CellTiter-Glo assay (Promega). The antiviral activity and cell toxicity results represent the average of at least three independent experiments.

Series [2] has as its system HIV-1 LTR promoter (LTR-Luc). The series is described as follows: Cell transfection assay, LTR-Luc plasmid in MT-2 cells. Type of series: cell-based. The settings on record: for EC50: read-out: EC50 of transfection, LTR; for inhibition of LTR-dependent expression: compared with HIV-1 infection and transfection assays. The procedure: Cell Transfection Assays.
MT-2 cells were transfected with plasmids containing a luciferase reporter gene the expression of which was under the control of the complete HIV-1 (NL4.3-luc) or HIV-1 LTR promoter (LTR-Luc). After transfection, the cells were treated with different compound concentrations, and the luciferase activity in the cell lysates was quantified 48 h later (Prado et al., Biochem Pharmacol 107 (2016) 14-28; Gonzalez-Bulnes et al., Angewandte Chemie-International Edition 52(50) (2013) 13405-13409).
The antiviral mechanism of compounds 1a and 2a was examined with additional cellular assays.

Series [3] relates to MT-2 cells. Kind of series: Cell toxicity, CellTiter-Glo assay. It counts as cell-based. The following applies: CC50 versus antiviral concentration of the infection experiments.
Excerpt: as §1, §2
For orientation: ATP-based viability assays read luminescence as a measure of living cells.

Series [4] is described as follows: Cell toxicity, CellTiter-Glo assay. Type of series: cell-based. The following applies: human.
Excerpt: as §1, §2

The test system of series [5] is IIB-Rev34-50 interaction (subdomain IIB of RRE and FITC-labeled Rev34-50 peptide). The series is described as follows: Fluorescence anisotropy (FA) inhibition of IIBh-Rev34-50 interaction. Type of series: binding, HIV-1. The protocol: Fluorescence Anisotropy (FA).
These experiments were performed and analyzed as described in the state of the art (Prado et al., Biochem Pharmacol 107 (2016) 14-28; Gonzalez-Bulnes et al., Angewandte Chemie-International Edition 52(50) (2013) 13405-13409; Luedtke et al., Biopolymers 70(1) (2003) 103-19), using 96-well plates and Victor X3 or Victor X5 plate readers (Perkin Elmer, Waltham USA). The assays used 10 nM of frevp and 60 nM of IIBh, and included one positive control (a mixture of IIBh and frevp) and two negative controls (frevp and a mixture of IIBh, frevp, and neomycin B). IIBh-frevp inhibition was only considered to exist when anisotropy reached the expected minimum value at the highest inhibitor concentrations. To ensure that there would not be spectral superposition with FITC, anisotropy data was also collected for each of the compounds. None of them emitted fluorescence under the assay conditions. These experiments were repeated three times for each compound.
The capacity of the compounds to inhibit IIB-Rev34-50 interaction was evaluated by means of an assay based on the detection, by means of fluorescence anisotropy (FA), of the shift of an FITC-labeled Rev34-50 peptide from its binding site in subdomain IIB of RRE. The capacity of the compounds to inhibit the formation of the RRE-Rev complex was evaluated by means of an electrophoretic mobility shift assay (EMSA).
A general note: Fluorescence polarisation rises when a labelled molecule tumbles more slowly, as on binding a larger partner.

Series [6] deals with subdomain IIB of the RRE (IIBh-19ap RNA). The series is described as follows: Fluorescence intensity binding to IIBh RNA, with or without competing RNAtCys or LTRd DNA. The arrangement: species or system HIV-1. The following applies: for specificity of the interaction with IIB: 100-fold molar excess of RNAtCys or LTRd; for specificity IIB/DNA: Kd(IIBh)/Kd(IIBh + LTRd) quotient; for specificity IIB/RNA: Kd(IIBh)/Kd(IIBh + tRNA) quotient. The procedure:
Depending on the absorption spectra of the compounds, these experiments measured association with IIBh-19ap or IIBh-23fl RNA sequences labeled with 2-aminopurine and fluorescein in residues A19 and U23 of the IIB loop, respectively (Prado et al., Biochem Pharmacol 107 (2016) 14-28), and were carried out in a SPECTRA GEMINI XPS plate reader (Molecular Devices, Sunnyvale, USA) or a Victor X5 plate reader (Perkin Elmer). The IIB RNA concentration in these assays was 100 nM, and the specificity of the interactions with respect to RNA and DNA was evaluated by duplicating the experiments in the presence of a 100-fold molar excess (10 μM) of RNAtCys or LTRd DNA duplex. All the fluorescence intensity experiments were performed at least three times for each compound.
The specificity of the interaction was evaluated by duplicating the experiments in the presence of a 100-fold molar excess of RNAtCys. Likewise, specificity with respect to a double-stranded DNA was evaluated by further performing the experiments with a 100-fold molar excess of a DNA duplex with 26 base pairs (identified as LTRd) containing NF-κB and Sp-1 transcription factor-binding sites (Prado et al., Biochem Pharmacol 107 (2016) 14-28). These two factors bind to the LTR promoter of HIV-1 DNA and are essential for virus replication (Jones et al., AnnuRevBiochem 63 (1994) 717-43).

Setting [7] is: Human immunodeficiency virus 1, MT2, 48 h, read-out: EC50 of infection, HIV.
The mark [8] stands for this setting: Human immunodeficiency virus 1, MT2, read-out: EC50 cell infection assay.
The mark [9] stands for this setting: IIBh-19ap, 100-fold molar excess of LTRd DNA duplex, read-out: Kd(IIBh + LTRd).
Where [10] appears, read: IIBh-19ap, 100-fold molar excess of RNAtCys, read-out: Kd(IIBh + tRNA).

Regarding `CN(C)CCOc1cc2c(c3ccccc13)-c1ccccc1C2=O` [Compound 1a], the EC50 in series [1] (setting [7]) is 0.83 µM; in series [1] (setting [8]) it was 0.83 µM; in series [2] (Human immunodeficiency virus 1, MT2, 48 h) it was 12.5 to 25 µM. The “inhibition of LTR-dependent expression” value in series [2] is reported as “weaker inhibition of LTR-dependent expression in relation to the activity detected in the complete HIV-1 transfection assay”. Also, the “CC50 values fold greater than the antiviral concentrations” value in series [3] worked out at 34 fold. In addition, in series [4] (MT-2 cells, CellTiter-Glo, read-out: CC50), the CC50 amounted to 28.1 µM. Moreover, the IC50 in series [5] (range given for FA and EMSA together for 2a and 2b, read-out: IC50 (FA, IIB-Rev34-50 interaction)) worked out at 6.7 µM. Moreover, in series [6], the “specificity of the interaction with IIB” value was “moderate specificity”. Further, the Kd in series [6] (setting [9]) amounted to 2.8 µM; in series [6] (setting [10]), 2.4 µM; in series [6] (fluorescence intensity, read-out: Kd for subdomain IIB of the RRE), 1.4 µM. Moreover, the “specificity IIB/DNA” value in series [6] was 0.50. In addition, the “specificity IIB/RNA” value in series [6] is 0.58.

In the case of `Fc1nc(N2CCNCC2)c(F)c(Sc2ccc(Cl)cc2)c1F` [Compound 2a], the 50% effective concentration (EC50) in series [1] (setting [7]) worked out at 2 µM; in series [1] (setting [8]) it was 2 µM; in series [2] (Human immunodeficiency virus 1, MT2, MT-2 cells, LTR-Luc, 48 h), 4.4 µM. For the same compound, in series [2], the “inhibition of LTR-dependent expression” value was “inhibited LTR-dependent expression with an EC50 value similar to those measured in the HIV-1 infection and transfection experiments”. The “CC50 values fold greater than the antiviral concentrations” value in series [3] was found to be 22 fold. In series [4], this compound had a half-maximal cytotoxic concentration (CC50) of 43.9 µM. Moreover, in series [5] (60 nM IIBh and 10 nM frevp, three independent experiments, read-out: IC50 IIB-Rev34-50), the IC50 is 4.8 µM. Also, the “specificity of the interaction with IIB” value in series [6] is on record as “specific”. Also, the Kd is 9.2 µM in series [6] (setting [9]); 9 µM in series [6] (setting [10]); 10.8 µM in series [6] (IIBh-19ap, no competitor, read-out: Kd(IIBh)). Further, the “specificity IIB/DNA” value in series [6] is on record as 1.17. In series [6], the “specificity IIB/RNA” value was 1.20.
